Measured values published in patent US20260224716A1, “PTH ANALOGS FOR THE TREATMENT OF HYPOPARATHYROIDISM” (priority 2020, published 2026).
pEC50: −log10 of the molar value. *1 amine or outer side, *2 acyl side, *3 side chain or, on linkers, in order; H or OH if unused. Where a SMILES comes first, the peptide text is derived from it. Where no end group is shown, it is not given here. Side-chain parts run from the residue outwards. [ ]: non-standard residue; d: D form. The star is where a group is joined. C18 diacid = O=C(O)CCCCCCCCCCCCCCCCC(=O)*; γGlu = O=C(O)[C@H](CCC(=O)[*:2])N[*:1]; NMeH = CN[C@@H](Cc1c[nH]cn1)C(=O)O; Isobutyryl(2-OH) = CC(C)(O)C(=O)*; Deg = CCC(N)(CC)C(=O)O; AEEA = NCCOCCOCC(=O)O; Aib = CC(C)(N)C(=O)O

Legend:
[1] = Rate of model dipeptide cleavage from hexapeptide in PBS (HPLC, LC-MS); type: physicochemical; settings: for half-life at 1 mg/ml: buffer; for t1/2: cleavage of dipeptide A-B from model hexapeptide in PBS, 37° C., unit not given or result in words
Protocol: The solution was incubated at 37° C.
The flow rate was 1 ml/min.

PTH1 receptor = target: T1, PTH1 receptor (Homo sapiens, UniProt Q03431); assay: Luciferase-based reporter gene assay for cAMP detection (HEK293 cells); type: cell-based; settings: for potency at the PTH receptor: luciferase reporter of cAMP production; for pEC50: HEK293 cells, PTH1 receptor, cAMP-responsive luciferase, 5 hours, read-out: Potency EC50
T1 construct: expressed in transfected cells; host or cells: HEK293
T1 sequence (Q03431 27-593): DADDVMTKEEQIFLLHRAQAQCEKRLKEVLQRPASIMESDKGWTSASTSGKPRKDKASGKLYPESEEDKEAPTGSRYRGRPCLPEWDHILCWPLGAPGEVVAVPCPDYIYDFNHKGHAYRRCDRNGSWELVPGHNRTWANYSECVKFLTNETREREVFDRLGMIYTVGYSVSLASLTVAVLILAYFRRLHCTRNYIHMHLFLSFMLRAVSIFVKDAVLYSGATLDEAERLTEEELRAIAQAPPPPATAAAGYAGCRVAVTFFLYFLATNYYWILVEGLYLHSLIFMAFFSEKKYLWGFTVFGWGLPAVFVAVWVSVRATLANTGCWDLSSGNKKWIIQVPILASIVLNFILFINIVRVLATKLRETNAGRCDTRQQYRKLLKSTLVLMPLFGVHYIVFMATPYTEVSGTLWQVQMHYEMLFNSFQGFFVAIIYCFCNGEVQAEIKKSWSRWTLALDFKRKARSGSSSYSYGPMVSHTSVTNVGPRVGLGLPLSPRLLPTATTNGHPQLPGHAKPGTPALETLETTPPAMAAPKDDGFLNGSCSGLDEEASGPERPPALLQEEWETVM
Protocol: At the end of the incubation, 50 μL of Steady-Lite Plus (PerkinElmer, Waltham, MA) were added to each well. The plate was shaken briefly, incubated four minutes and light output was measured on an EnSpire Alpha Multi-mode Plate Reader (PerkinElmer, Waltham, MA).

[2] = Cleavage half-life / conversion of PTH prodrugs in PBS pH 7.4, 37° C. by LC-MS; type: physicochemical; settings: PBS buffer; dipeptide cleavage from PTH prodrug, PBS pH 7.4, 37° C.; read-out: Half life (converted)
Protocol: The resulting solution was incubated at 37° C. Aliquots were taken at designed time points and analyzed by LC-MS. […] Flow rate of 1 mL/min and a gradient of 10%-80% acetonitrile in water, with 0.1% trifluoroacetic acid over 10 min. […] The concentration of prodrug and drug were determined by their relative peak areas. The […] dissociation rate constant of the prodrug was determined by plotting the logarithm in the concentration of the prodrug at various time points.

| Molecule | half-life at 1 mg/ml [1] [h] | t1/2 [1] | further results |
| --- | --- | --- | --- |
| CC[C@H](C)[C@H](NC(=O)[C@H](CCC(=O)O)NC(=O)[C@H](CO)NC(=O)[C@@H](NC(=O)[C@H](CO)NC(=O)CN(C)C(=O)[C@H](N)CCCCNC(=O)CC[C@H](NC(=O)CCCCCCCCCCCCCCCCC(=O)O)C(=O)O)C(C)C)C(=O)N[C@@H](CCC(N)=O)C(=O)N[C@@H](CC(C)C)C(=O)N[C@@H](CCSC)C(=O)N[C@@H](Cc1c[nH]cn1)C(=O)N[C@@H](CC(N)=O)C(=O)N[C@@H](CC(C)C)C(=O)NCC(=O)N[C@@H](CCCCN)C(=O)N[C@@H](Cc1c[nH]cn1)C(=O)N[C@@H](CC(C)C)C(=O)N[C@@H](CC(N)=O)C(=O)N[C@@H](CO)C(=O)N[C@@H](CCSC)C(=O)N[C@@H](CCC(=O)O)C(=O)N[C@@H](CCCNC(=N)N)C(=O)N[C@H](C(=O)N[C@@H](CCC(=O)O)C(=O)N[C@@H](Cc1c[nH]c2ccccc12)C(=O)N[C@@H](CC(C)C)C(=O)N[C@@H](CCCNC(=N)N)C(=O)N[C@@H](CCCCN)C(=O)N[C@@H](CCCCN)C(=O)N[C@@H](CC(C)C)C(=O)N[C@@H](CCC(N)=O)C(=O)N[C@@H](CC(=O)O)C(=O)N[C@H](C(=O)N[C@@H](Cc1c[nH]cn1)C(=O)N[C@@H](CC(N)=O)C(=O)N[C@@H](Cc1ccccc1)C(=O)N[C@@H](CCCCNC(=O)CC[C@H](NC(=O)CCCCCCCCCCCCCCCCC(=O)O)C(=O)O)C(N)=O)C(C)C)C(C)C [SEQ ID NO: 58] |  |  | potency at the PTH receptor (PTH1 receptor; FIGS. 3A, 3B): low potency; half-life [2]: 73 h |
| 7 (SVSEIQLMHNLGKHLNSMERVEWLRKKLQDVH; listed as Homo sapiens) [compound 7] |  | No cleavage |  |
| 12 (SVSEIQLMHNLGKHLNSMERVEWLRKKLQDVHNFX; VARIANT 35 MISC_FEATURE - Xaa at position 35 is an acylated Lys; SITE 35 MISC_FEATURE - C-terminal carboxyl group replaced with an amide; listed as Homo sapiens) [compound 12] |  | No cleavage |  |
| 13 (XXSVSEIQLMHNLGKHLNSMERVEWLRKKLQDVHNFX; SITE 1 MISC_FEATURE - Xaa at position 1 is acylated dLys; SITE 2 MISC_FEATURE - Xaa at position 2 is N-methyl Gly; SITE 37 MISC_FEATURE - Xaa at position 37 is an acylated Lys; SITE 37 MISC_FEATURE - C-terminal carboxyl group replaced with an amide; listed as Homo sapiens) [compound 13] |  | No cleavage |  |
| 11 (XXSVSEIQLMHNLGKHLNSMERVEWLRKKLQDVHNF; SITE 1 MISC_FEATURE - Xaa at position 1 is acylated dLys; SITE 2 MISC_FEATURE - Xaa at position 2 is N-methyl Gly; listed as Homo sapiens) [compound 11] |  | No cleavage |  |
| CC[C@H](C)[C@H](NC(=O)[C@H](CCC(=O)O)NC(=O)[C@H](CO)NC(=O)[C@@H](NC(=O)[C@H](CO)NC(=O)CN(C)C(=O)[C@H](N)CCCCNC(=O)CC[C@H](NC(=O)CCCCCCCCCCCCCCCCC(=O)O)C(=O)O)C(C)C)C(=O)N[C@@H](CCC(N)=O)C(=O)N[C@@H](CC(C)C)C(=O)N[C@@H](CCSC)C(=O)N[C@@H](Cc1c[nH]cn1)C(=O)N[C@@H](CC(N)=O)C(=O)N[C@@H](CC(C)C)C(=O)NCC(=O)N[C@@H](CCCCN)C(=O)N[C@@H](Cc1c[nH]cn1)C(=O)N[C@@H](CC(C)C)C(=O)N[C@@H](CC(N)=O)C(=O)N[C@@H](CO)C(=O)N[C@@H](CCSC)C(=O)N[C@@H](CCC(=O)O)C(=O)N[C@@H](CCCNC(=N)N)C(=O)N[C@H](C(=O)N[C@@H](CCC(=O)O)C(=O)N[C@@H](Cc1c[nH]c2ccccc12)C(=O)N[C@@H](CC(C)C)C(=O)N[C@@H](CCCNC(=N)N)C(=O)N[C@@H](CCCCN)C(=O)N[C@@H](CCCCN)C(=O)N[C@@H](CC(C)C)C(=O)N[C@@H](CCC(N)=O)C(=O)N[C@@H](CC(=O)O)C(=O)N[C@H](C(=O)N[C@@H](Cc1c[nH]cn1)C(=O)N[C@@H](CC(N)=O)C(=O)N[C@@H](Cc1ccccc1)C(=O)O)C(C)C)C(C)C [SEQ ID NO: 45] |  |  | potency at the PTH receptor (PTH1 receptor; FIGS. 3A, 3B): decreases the potency; pEC50 (PTH1 receptor): 7.34; half-life [2]: 90 h |
| SVSEIQLAHNLGKHLNSMERVEWLRKKLQDVHK(γE-(miniPEG)2-γE-COC16H32CO2H)-OH (SVSEIQLAHNLGKHLNSMERVEWLRKKLQDVHK([γGlu-AEEA-AEEA-γGlu-C18 diacid])-OH; N-terminus assumed; SMILES CC[C@H](C)[C@H](NC(=O)[C@H](CCC(=O)O)NC(=O)[C@H](CO)NC(=O)[C@@H](NC(=O)[C@@H](N)CO)C(C)C)C(=O)N[C@@H](CCC(N)=O)C(=O)N[C@@H](CC(C)C)C(=O)N[C@@H](C)C(=O)N[C@@H](Cc1c[nH]cn1)C(=O)N[C@@H](CC(N)=O)C(=O)N[C@@H](CC(C)C)C(=O)NCC(=O)N[C@@H](CCCCN)C(=O)N[C@@H](Cc1c[nH]cn1)C(=O)N[C@@H](CC(C)C)C(=O)N[C@@H](CC(N)=O)C(=O)N[C@@H](CO)C(=O)N[C@@H](CCSC)C(=O)N[C@@H](CCC(=O)O)C(=O)N[C@@H](CCCNC(=N)N)C(=O)N[C@H](C(=O)N[C@@H](CCC(=O)O)C(=O)N[C@@H](Cc1c[nH]c2ccccc12)C(=O)N[C@@H](CC(C)C)C(=O)N[C@@H](CCCNC(=N)N)C(=O)N[C@@H](CCCCN)C(=O)N[C@@H](CCCCN)C(=O)N[C@@H](CC(C)C)C(=O)N[C@@H](CCC(N)=O)C(=O)N[C@@H](CC(=O)O)C(=O)N[C@H](C(=O)N[C@@H](Cc1c[nH]cn1)C(=O)N[C@@H](CCCCNC(=O)CC[C@H](NC(=O)COCCOCCNC(=O)COCCOCCNC(=O)CC[C@H](NC(=O)CCCCCCCCCCCCCCCCC(=O)O)C(=O)O)C(=O)O)C(=O)O)C(C)C)C(C)C; listed as Homo sapiens) [SEQ ID NO: 93, PTH(1-33), A8, K33(γE-2xOEG-γE-diacidC18)] |  |  | reduction of in vitro potency by alanine substitution at position 8 (PTH1 receptor): ~100 fold; potency at the PTH receptor (PTH1 receptor; FIG. 4): decreases PTH activity |
| CC[C@H](C)[C@H](NC(=O)[C@H](CCC(=O)O)NC(=O)[C@H](CO)NC(=O)[C@@H](NC(=O)[C@@H](N)CO)C(C)C)C(=O)N[C@@H](CCC(N)=O)C(=O)N[C@@H](CC(C)C)C(=O)N[C@@H](CCSC)C(=O)N[C@@H](Cc1c[nH]cn1)C(=O)N[C@@H](CC(N)=O)C(=O)N[C@@H](CC(C)C)C(=O)NCC(=O)N[C@@H](CCCCN)C(=O)N[C@@H](Cc1c[nH]cn1)C(=O)N[C@@H](CC(C)C)C(=O)N[C@@H](CC(N)=O)C(=O)N[C@@H](CO)C(=O)N[C@@H](CCSC)C(=O)N[C@@H](CCC(=O)O)C(=O)N[C@@H](CCCNC(=N)N)C(=O)N[C@H](C(=O)N[C@@H](CCC(=O)O)C(=O)N[C@@H](Cc1c[nH]c2ccccc12)C(=O)N[C@@H](CC(C)C)C(=O)N[C@@H](CCCNC(=N)N)C(=O)N[C@@H](CCCCN)C(=O)N[C@@H](CCCCN)C(=O)N[C@@H](CC(C)C)C(=O)N[C@@H](CCC(N)=O)C(=O)N[C@@H](CC(=O)O)C(=O)N[C@H](C(=O)N[C@@H](Cc1c[nH]cn1)C(=O)N[C@@H](CC(N)=O)C(=O)N[C@@H](Cc1ccccc1)C(=O)N[C@@H](CCCCNC(=O)CC[C@H](NC(=O)CCCCCCCCCCCCCCCCC(=O)O)C(=O)O)C(N)=O)C(C)C)C(C)C [SEQ ID NO: 56] |  |  | potency at the PTH receptor (PTH1 receptor; FIGS. 3A, 3B): retains high potency; pEC50 (PTH1 receptor): 8.54 |

More lines, main results first:

| half-life at 1 mg/ml [1] [h] | Molecule | t1/2 [1] | further results |
| --- | --- | --- | --- |
| 46 | CCC(N)(CC)C(=O)N1CCC[C@H]1C(=O)N[C@@H](Cc1c[nH]cn1)C(=O)N[C@@H](CO)C(=O)N[C@@H](CCCNC(=N)N)C(=O)NCC(=O)N[C@H](C(=O)N[C@@H](Cc1ccccc1)C(N)=O)[C@@H](C)O [compound 20] (H-[Deg]PHSRGTF-NH2) |  |  |
| 58 | C[C@H](NC(=O)[C@@H]1CCCN1C(=O)C(C)(C)N)C(=O)N[C@@H](CO)C(=O)N[C@@H](CCCNC(=N)N)C(=O)NCC(=O)N[C@H](C(=O)N[C@@H](Cc1ccccc1)C(N)=O)[C@@H](C)O [compound 22] (H-[Aib]PASRGTF-NH2) |  |  |
| 30 | C[C@@H](O)[C@H](NC(=O)CNC(=O)[C@H](CCCNC(=N)N)NC(=O)[C@H](CO)NC(=O)[C@H](Cc1c[nH]cn1)N(C)C(=O)[C@@H]1CCCN1C(=O)C(C)(C)N)C(=O)N[C@@H](Cc1ccccc1)C(N)=O [compound 23] (H-[Aib]P[NMeH]SRGTF-NH2) |  |  |
| 20 | C[C@@H](O)[C@H](NC(=O)CNC(=O)[C@H](CCCNC(=N)N)NC(=O)[C@H](CO)NC(=O)[C@H](Cc1c[nH]cn1)NC(=O)[C@H]1CCCN1C(=O)C(C)(C)N)C(=O)N[C@@H](Cc1ccccc1)C(N)=O [compound 15] (H-[Aib][dP]HSRGTF-NH2) |  |  |
| 61 | C[C@@H](O)[C@H](NC(=O)CNC(=O)[C@H](CCCNC(=N)N)NC(=O)[C@H](CO)NC(=O)[C@H](Cc1c[nH]cn1)NC(=O)[C@@H]1CCCN1C(=O)C(C)(C)O)C(=O)N[C@@H](Cc1ccccc1)C(N)=O [compound 21] ({Isobutyryl(2-OH)}-PHSRGTF-NH2) |  |  |
